Key:
Experiment in all cases: cryo-EM structure, […] Å
Assay type in all cases: binding
human MCC holoenzyme = target: T1, human MCC holoenzyme (Homo sapiens, UniProt Q9HCC0); conditions: 10 mM acetyl-CoA, 25 mM NaHCO3, 10 mM MgCl2, 10 mM ATP, pH 7.4; CT-domain acyl-CoA pocket; not the natural substrate
T1 construct: gene MCCC2; endogenous untagged holoenzyme, native purification from Expi 293F cells on Strep-Tactin XT via covalently linked biotin (K681 of MCCα); α6β6 dodecamer; acyl-CoA site between CT-C of one β and CT-N of another β; with Methylcrotonoyl-CoA carboxylase subunit alpha, mitochondrial
T1 sequence (Q9HCC0 23-563): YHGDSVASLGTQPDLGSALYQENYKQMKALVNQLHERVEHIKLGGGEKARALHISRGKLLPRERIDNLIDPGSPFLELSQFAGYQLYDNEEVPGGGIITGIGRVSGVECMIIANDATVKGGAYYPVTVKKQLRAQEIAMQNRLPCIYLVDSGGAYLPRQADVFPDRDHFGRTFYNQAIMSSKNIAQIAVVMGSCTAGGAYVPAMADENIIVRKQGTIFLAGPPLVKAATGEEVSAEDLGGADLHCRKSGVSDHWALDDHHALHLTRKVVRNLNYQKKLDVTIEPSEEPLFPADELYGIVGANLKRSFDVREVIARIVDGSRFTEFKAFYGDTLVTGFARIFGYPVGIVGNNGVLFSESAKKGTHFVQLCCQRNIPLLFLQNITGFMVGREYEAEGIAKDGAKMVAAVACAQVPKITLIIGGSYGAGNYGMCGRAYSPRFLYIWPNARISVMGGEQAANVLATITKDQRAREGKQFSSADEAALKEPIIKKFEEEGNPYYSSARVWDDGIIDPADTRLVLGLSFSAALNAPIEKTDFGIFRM
T1 sequence (Q96RQ3 42-725 partner): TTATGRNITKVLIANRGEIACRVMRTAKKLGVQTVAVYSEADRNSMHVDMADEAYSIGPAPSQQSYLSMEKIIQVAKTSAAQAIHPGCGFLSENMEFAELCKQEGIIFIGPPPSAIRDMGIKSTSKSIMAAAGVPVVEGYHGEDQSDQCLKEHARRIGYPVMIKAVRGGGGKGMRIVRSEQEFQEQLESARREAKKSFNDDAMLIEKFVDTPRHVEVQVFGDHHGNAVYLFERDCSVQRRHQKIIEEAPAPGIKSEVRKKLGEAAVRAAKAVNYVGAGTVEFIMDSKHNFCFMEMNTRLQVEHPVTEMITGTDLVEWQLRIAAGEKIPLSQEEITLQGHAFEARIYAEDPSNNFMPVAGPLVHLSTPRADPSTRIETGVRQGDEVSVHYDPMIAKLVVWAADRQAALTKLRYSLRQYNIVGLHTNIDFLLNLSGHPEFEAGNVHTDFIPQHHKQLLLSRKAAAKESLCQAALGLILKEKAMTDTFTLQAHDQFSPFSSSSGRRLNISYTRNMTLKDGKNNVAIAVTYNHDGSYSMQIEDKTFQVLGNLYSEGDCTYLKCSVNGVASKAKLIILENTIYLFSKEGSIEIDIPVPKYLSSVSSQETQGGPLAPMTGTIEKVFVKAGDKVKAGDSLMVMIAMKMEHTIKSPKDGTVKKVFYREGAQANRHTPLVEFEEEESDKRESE

human PCC holoenzyme [1] = target: T2, human PCC holoenzyme (Homo sapiens, UniProt P05166); conditions: 10 mM acetyl-CoA, 25 mM NaHCO3, 10 mM MgCl2, 10 mM ATP, pH 7.4; CT-domain active site; acyl group not resolved in map
T2 construct: gene PCCB; endogenous untagged holoenzyme, native purification from Expi 293F cells on Strep-Tactin XT via covalently linked biotin (K694 of PCCα); α6β6 dodecamer; acyl-CoA site between CT-C of one β and CT-N of another β; with Propionyl-CoA carboxylase alpha chain, mitochondrial
T2 sequence (P05166 29-539): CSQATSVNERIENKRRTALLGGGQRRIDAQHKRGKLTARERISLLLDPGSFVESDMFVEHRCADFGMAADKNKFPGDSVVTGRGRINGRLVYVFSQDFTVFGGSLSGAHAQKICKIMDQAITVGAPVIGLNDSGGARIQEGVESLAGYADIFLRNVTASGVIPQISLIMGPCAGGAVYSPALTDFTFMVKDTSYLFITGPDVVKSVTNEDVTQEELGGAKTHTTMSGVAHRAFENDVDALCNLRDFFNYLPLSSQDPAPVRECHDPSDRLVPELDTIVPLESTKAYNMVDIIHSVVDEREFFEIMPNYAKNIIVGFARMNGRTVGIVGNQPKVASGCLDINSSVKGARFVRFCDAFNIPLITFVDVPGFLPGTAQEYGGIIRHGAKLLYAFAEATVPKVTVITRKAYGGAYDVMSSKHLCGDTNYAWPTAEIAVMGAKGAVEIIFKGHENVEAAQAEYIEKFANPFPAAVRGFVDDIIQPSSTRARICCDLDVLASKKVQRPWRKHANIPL
T2 sequence (P05165 53-728 partner): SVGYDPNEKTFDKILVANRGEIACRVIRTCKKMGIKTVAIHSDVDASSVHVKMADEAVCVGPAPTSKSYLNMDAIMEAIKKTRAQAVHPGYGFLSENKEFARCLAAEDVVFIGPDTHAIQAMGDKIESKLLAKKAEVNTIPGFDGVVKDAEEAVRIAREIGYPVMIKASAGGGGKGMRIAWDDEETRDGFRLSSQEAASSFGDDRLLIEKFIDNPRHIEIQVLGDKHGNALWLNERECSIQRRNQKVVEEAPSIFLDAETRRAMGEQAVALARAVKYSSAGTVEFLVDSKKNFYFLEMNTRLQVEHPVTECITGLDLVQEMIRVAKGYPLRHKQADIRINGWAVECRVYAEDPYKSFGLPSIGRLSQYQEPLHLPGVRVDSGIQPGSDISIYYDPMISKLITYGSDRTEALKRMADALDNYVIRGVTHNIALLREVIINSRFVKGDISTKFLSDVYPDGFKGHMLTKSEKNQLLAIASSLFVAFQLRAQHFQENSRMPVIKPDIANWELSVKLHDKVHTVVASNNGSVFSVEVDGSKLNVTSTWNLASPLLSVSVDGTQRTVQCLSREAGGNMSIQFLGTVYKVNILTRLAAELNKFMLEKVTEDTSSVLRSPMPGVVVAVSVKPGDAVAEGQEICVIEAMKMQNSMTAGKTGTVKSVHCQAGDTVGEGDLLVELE

human PCC holoenzyme [2] = target: T2, human PCC holoenzyme; conditions: 10 mM propionyl-CoA, 25 mM NaHCO3, 10 mM MgCl2, 10 mM ATP, pH 7.4; CT-domain active site; acyl group not resolved in map

| Structure (SMILES) | cryo-EM structure, 2.85 Å (human MCC holoenzyme) | cryo-EM structure, 3.38 Å (human PCC holoenzyme [1]) | cryo-EM structure, 2.80 Å (human PCC holoenzyme [2]) |
| --- | --- | --- | --- |
| CC(=O)SCCNC(=O)CCNC(=O)[C@H](O)C(C)(C)COP(=O)(O)OP(=O)(O)OC[C@H]1O[C@@H](n2cnc3c(N)ncnc32)[C@H](O)[C@@H]1OP(=O)(O)O [acetyl-CoA] | PCC and MCC holoenzymes in the acetyl-CoA-bound state (referred to as PCC-ACO and MCC-ACO) | The acetyl-CoA in the PCC-ACO structure has a binding mode similar to the propionyl-CoA |  |
| CCC(=O)SCCNC(=O)CCNC(=O)[C@H](O)C(C)(C)COP(=O)(O)OP(=O)(O)OC[C@H]1O[C@@H](n2cnc3c(N)ncnc32)[C@H](O)[C@@H]1OP(=O)(O)O [propionyl-CoA] |  |  | six propionyl-CoA molecules are observed binding to the six active sites of CT domains |
